From US8541442B2, “Indole derivatives as anticancer agents” (Janssen Pharmaceutica N.V., priority 2009, dated 2013)

System: human U87 glioma tumor
Test: In vivo anti tumour effects, U87 glioma xenograft
Conditions: U87 xenograft in NMRI Nude mice, 20 mg/kg p.o. QD for 5 days, day 6 after start dosing
Protocol: Immuno-deficient (athymic) male NMRI Nude (Nu/Nu) mice (20-25 g obtained from Janvier, France) were used for these studies. Initial weight was approximately […]. All animals were maintained under SPF “full barrier” conditions with free access to food and water. Mice were group housed under a 12-h light:dark cycle (lights on at 06:00 h) at a temperature of 19 to 22° C. and 35 to 40% humidity in Techniplast type-3 IVC cages. Mice were fed a standard Laboratory chow. All experiments were carried out in accordance with the European Communities Council Directives (86/609/EEC) and had to be approved by the local ethical committee. For an established tumor xenograft model (tumor volume ˜200 mm^3), mice were randomized according to tumor volumes, with 5 mice per treatment group.
The human U87 glioma tumor cell line was derived from a patient. Cells were cultured at 37° C. in a humidified atmosphere (5% CO2, 95% air), in DMEM medium supplemented with 2 mM L-glutamine, 2.0 mM sodium pyruvate, 25 units/ml penicillin/25 μg/ml streptomycin and 10% fetal bovine serum. Cells were maintained as cell monolayer cultures, being passaged twice weekly at 3×10^6 cells per T175 flask using the following procedure. Briefly cells were washed with PBS (without Mg^2+, Ca^2+), before addition of trypsin-EDTA to the culture flasks. After detachment of cells the trypsin-EDTA was inactivated by addition of complete medium. Cell suspension was then transferred to 50 ml Falcon tube and centrifuged for 3 min at 1200 rpm. Medium was aspirated, with the cells being re-suspended in an appropriate volume of complete medium. The cells were counted in a haemocytometer and their viability was assessed by 0.25% trypan blue exclusion. An appropriate volume of cell suspension was then added to either a new T175 culture flask(s) or roller bottle containing fresh medium. For large scale-up growth of U87 tumor cells, an appropriate number of roller bottles were seeded with 0.5 to 1×10^7 cells 1 week prior to inoculation of mice. The medium was changed twice during this period, with the last change being the day prior to cell injection. Cells were collected as described above, with the exception that after centrifugation, the cells were re-suspended in cold (4° C.) serum-free medium. Mice were injected in the inguinal region with 1×10^7 cells total in a 200 μl volume.
Human U87 glioma cells were injected directly into the inguinal region of the male NMRI Nude mice (1×10^7 cells/200 μl/animal) on day 0 (D0). On day 7-10 (can vary due to tumor take/growth between cell batches) when tumor volume had reached an approximate average of 200 mm^3, mice were randomized according to tumor volume, with 5 mice per treatment group. Mice were then treated once daily (QD) with either vehicle (10% HP-β-CD) or vehicle containing test compound (20 mg/kg) by gavage (p.o.) administered in a volume of 10 ml/kg body weight for 5 days. Specific tumor measurements were taken on day 6 (24 hours post 5th dose) and then again on day 10. Tumor re-growth (after dosing has stopped) was monitored so that the time-to-reach a volume of 2000 mm^3 (TTR2000) can be recorded. This gives extra information on the duration of drug action on the tumor growth. In general, tumor size and body weights were measured twice weekly, with mice monitored daily for clinical signs of toxicity for the duration of the treatment. Clinical signs of toxicity included (but not limited to), persistent anorexia or dehydration, posture, moribund, lethargy, hypothermia and/or laboured respiration (according to the UKCCCR guidelines for welfare of animals in experimental neoplasia (The UKCCCR (UK Coordinating Committee on Cancer Research) guidelines for the welfare of animals in experimental neoplasia (July 1997); and Workman, P. et al. UKCCCR guideline. Br. J. Cancer. 1998, 77: 1-10). […]

`COC1CCc2c(Nc3ccc(NCCc4c[nH]c5c(C(C)O)cccc45)c(C)c3)ccnc21` (stereo not shown) [Compound 16] was tested, and the “% T/C day 6” value was 63%.

Same assay, conditions: U87 xenograft in NMRI Nude mice, 20 mg/kg p.o. QD for 5 days, day 6 after start dosing; 20 mg/kg

Point of comparison: `COC1CCc2c(Nc3ccc(NCCc4c[nH]c5c(C(C)(C)O)cccc45)cc3)ccnc21` (single isomer, unassigned) [Compound 24], “% T/C day 6” value 60%. Against it:
- COC1CCc2c(Nc3ccc(NCCc4c[nH]c5c(C(C)(C)O)cccc45)cc3)ccnc21 (single isomer, unassigned) [Compound 25] — higher, 330%
- CC(C)(O)c1cccc2c(CCNc3ccc(Nc4ccnc5c4CCC5(C)O)cc3)c[nH]c12 (single isomer, unassigned) [Compound 31] — higher, 179%
- CC(C)(O)c1cccc2c(CCNc3ccc(Nc4ccnc5c4CCC5(C)O)cc3)c[nH]c12 (single isomer, unassigned) [Compound 30] — lower, −61%
- COC1CCc2c(Nc3ccc(NCCc4c[nH]c5c(C(C)(C)O)cccc45)c(C)c3)ccnc21 (single isomer, unassigned) [Compound 29] — lower, −196%
- Cc1cc(Nc2ccnc3c2CCC3(C)O)ccc1NCCc1c[nH]c2c(C(C)(C)O)cccc12 (single isomer, unassigned) [Compound 26] — higher, 354%
- Cc1cc(Nc2ccnc3c2CCC3(C)O)ccc1NCCc1c[nH]c2c(C(C)(C)O)cccc12 (single isomer, unassigned) [Compound 27] — higher, 193%
- Cc1cc(Nc2ccnc3c2CCC3O)ccc1NCCc1c[nH]c2c(C(C)O)cccc12 (single isomer, unassigned) [Compound 12] — higher, 64%

Same assay, conditions: U87 xenograft in NMRI Nude mice, 20 mg/kg p.o. QD for 5 days, day 10 after start dosing

With `COC1CCc2c(Nc3ccc(NCCc4c[nH]c5c(C(C)O)cccc45)c(C)c3)ccnc21` (stereo not shown) [Compound 16] the “% T/C day 10” value was 64%.

Same assay, conditions: U87 xenograft in NMRI Nude mice, 20 mg/kg p.o. QD for 5 days, day 10 after start dosing; 20 mg/kg

Point of comparison: `COC1CCc2c(Nc3ccc(NCCc4c[nH]c5c(C(C)(C)O)cccc45)c(C)c3)ccnc21` (single isomer, unassigned) [Compound 29], “% T/C day 10” value −13%. Against it:
- COC1CCc2c(Nc3ccc(NCCc4c[nH]c5c(C(C)(C)O)cccc45)cc3)ccnc21 (single isomer, unassigned) [Compound 25] — higher, −3%
- CC(C)(O)c1cccc2c(CCNc3ccc(Nc4ccnc5c4CCC5(C)O)cc3)c[nH]c12 (single isomer, unassigned) [Compound 31] — higher, 1%
- CC(C)(O)c1cccc2c(CCNc3ccc(Nc4ccnc5c4CCC5(C)O)cc3)c[nH]c12 (single isomer, unassigned) [Compound 30] — higher, −10%
- Cc1cc(Nc2ccnc3c2CCC3(C)O)ccc1NCCc1c[nH]c2c(C(C)(C)O)cccc12 (single isomer, unassigned) [Compound 26] — higher, −11%
- Cc1cc(Nc2ccnc3c2CCC3(C)O)ccc1NCCc1c[nH]c2c(C(C)(C)O)cccc12 (single isomer, unassigned) [Compound 27] — higher, 22%
- COC1CCc2c(Nc3ccc(NCCc4c[nH]c5c(C(C)(C)O)cccc45)cc3)ccnc21 (single isomer, unassigned) [Compound 24] — higher, 1%
- Cc1cc(Nc2ccnc3c2CCC3O)ccc1NCCc1c[nH]c2c(C(C)O)cccc12 (single isomer, unassigned) [Compound 12] — higher, 71%

System: colorectal cancer cell line HCT116
Test: Alamar Blue cell proliferation assay, HCT116
Format: cell-based
Conditions: HCT116 cells
Protocol: (§1) For experiments in 384 wells plates the cells were seeded at a density of 5×10^3 cells/ml in Falcon 384-well culture plates (Life Technologies, Merelbeke, Belgium), black with clear bottom, in 45 μl culture medium. Cells were allowed to adhere to plastic for 24 hr. The tested compound was pre-diluted (1/50 in culture medium) and 5 μl pre-diluted compound was added to the wells. Following 4-day incubation, 10 μl of the Alamar Blue solution was added to each well and the cells were further incubated for 5 hrs (A2780) at 37° C. The fluorescence intensity was measured for each well with a Fluorescence plate reader (Fluorskan, Labsystems, 540 nm excitation and 590 nm emission)
(§2) The antiproliferative activity was calculated as percentage of remaining viable cells in treated versus control (untreated cells) conditions. Within an experiment, the result for each experimental condition is the mean of 3 replicate wells. When appropriate, the experiments were repeated to establish full concentration-response curves. When appropriate, IC50-values (concentration of the drug, needed to reduce cell growth to 50% of the control) were computed using probit analysis for graded data (Finney, D. J., Probit Analyses, 2nd Ed. Chapter 10, Graded Responses, Cambridge University Press, Cambridge 1962). Herein the effects of test compounds are expressed as pIC50 (the negative log value of the IC50-value (M)) (see Table 5A).
Compounds were also tested according to the above protocol but using other cell lines: colorectal cancer cell line HCT116, non-small cell lung cancer cell line H1299, human prostate cancer cell line DU145.

Point of comparison: `COC1CCc2c(Nc3ccc(NCCc4c[nH]c5c(C(C)(C)O)cccc45)c(C)c3)ccnc21` (single isomer, unassigned) [Compound 29], “HCT116 cell proliferation inhibition pIC50” value 7.37. Against it:
- CC(C)(O)c1cccc2c(CCNc3ccc(Nc4ccnc5c4CCC5(C)O)cc3)c[nH]c12 (single isomer, unassigned) [Compound 31] — lower, 6.94
- CC(C)(O)c1cccc2c(CCNc3ccc(Nc4ccnc5c4CCC5(C)O)cc3)c[nH]c12 (single isomer, unassigned) [Compound 30] — within 0.2 log units, 7.19
- Cc1cc(Nc2ccnc3c2CCC3(C)O)ccc1NCCc1c[nH]c2c(C(C)(C)O)cccc12 (single isomer, unassigned) [Compound 26] — within 0.2 log units, 7.26
- COC1CCc2c(Nc3ccc(NCCc4c[nH]c5c(C(C)O)cccc45)c(C)c3)ccnc21 (stereo not shown) [Compound 16] — lower, 6.68
- Cc1cc(Nc2ccnc3c2CCC3O)ccc1NCCc1c[nH]c2c(C(C)O)cccc12 (single isomer, unassigned) [Compound 12] — lower, 6.06

Same assay, conditions: Homo sapiens, HCT-116, HCT116 cells; read-out: HCT116 cell proliferation inhibition pIC50 (converted)

Point of comparison: `COC1CCc2c(Nc3ccc(NCCc4c[nH]c5c(C(C)(C)O)cccc45)cc3)ccnc21` (single isomer, unassigned) [Compound 24], IC50 38 nM. Against it:
- Cc1cc(Nc2ccnc3c2CCC3(C)O)ccc1NCCc1c[nH]c2c(C(C)(C)O)cccc12 (single isomer, unassigned) [Compound 27] — 2.2-fold higher, 83.2 nM
- C=C(C)c1cccc2c(CCNc3ccc(Nc4ccnc5c4CCC5OC)cc3)c[nH]c12 (stereo not shown) [Compound 7] — 2.6-fold higher, 100 nM

System: A2780 ovarian cancer cells
Test: Alamar Blue cell proliferation assay, A2780
Format: cell-based, human
Conditions: 4-day incubation
Protocol: The human A2780 ovarian cancer cells were a kind gift from Dr. T. C. Hamilton (Fox Chase Cancer Centre, Pennsylvania, U.S.A.). The cells were cultured in RPMI 1640 medium supplemented with 2 mM L-Glutamine, 50 μg/ml gentamicin and 10% fetal calf serum.
Potassium Phosphate Buffer 0.1 M (PPB) was made as follows: 2.72 gram KH2PO4 and 13.86 gram K2HPO4 were dissolved in 500 ml milli-Q H2O, the pH was adjusted to pH 7.4 and the volume was brought to 1 liter with milli-Q H2O; the buffer was filter sterilised and stored at room temperature. Resazurin stock solution (PPB-A) was prepared fresh by dissolving 45 mg resazurin in 15 ml PBS. 30 mM potassium ferricyanide (PPB-B) was prepared by dissolving 0.987 gram potassium ferricyanide in 100 ml PPB. 30 mM potassium ferrocyanide (PPB-C) was prepared by dissolving 1.266 gram potassium ferrocyanide in 100 ml PPB.
Mixture of PPB-A, PPB-B and PPB-C was prepared by mixing equal volumes of the respective solutions. Resazurin work solution (herein termed “Alamar Blue” solution) was prepared by diluting said mixture 20×(vol/vol) in PPB and filter sterilising; the Alamar Blue solution could be kept at 4° C. for a maximum of 2 weeks.
as §1, §2

Point of comparison: `CC(C)(O)c1cccc2c(CCNc3ccc(Nc4ccnc5c4CCC5(C)O)cc3)c[nH]c12` (single isomer, unassigned) [Compound 30], “A2780 cell proliferation inhibition pIC50” value 7.04. Against it:
- CC(C)(O)c1cccc2c(CCNc3ccc(Nc4ccnc5c4CCC5(C)O)cc3)c[nH]c12 (single isomer, unassigned) [Compound 31] — lower, 6.84
- COC1CCc2c(Nc3ccc(NCCc4c[nH]c5c(C(C)(C)O)cccc45)c(C)c3)ccnc21 (single isomer, unassigned) [Compound 29] — within 0.2 log units, 7.14
- Cc1cc(Nc2ccnc3c2CCC3(C)O)ccc1NCCc1c[nH]c2c(C(C)(C)O)cccc12 (single isomer, unassigned) [Compound 26] — within 0.2 log units, 7.11
- COC1CCc2c(Nc3ccc(NCCc4c[nH]c5c(C(C)O)cccc45)c(C)c3)ccnc21 (stereo not shown) [Compound 16] — within 0.2 log units, 6.87
- Cc1cc(Nc2ccnc3c2CCC3O)ccc1NCCc1c[nH]c2c(C(C)O)cccc12 (single isomer, unassigned) [Compound 12] — within 0.2 log units, 7.20

Same assay, conditions: Homo sapiens, A2780, 96 h, 4-day incubation, read-out: A2780 cell proliferation inhibition pIC50 (converted)

Point of comparison: `Cc1cc(Nc2ccnc3c2CCC3(C)O)ccc1NCCc1c[nH]c2c(C(C)(C)O)cccc12` (single isomer, unassigned) [Compound 27], IC50 141 nM. Against it:
- COC1CCc2c(Nc3ccc(NCCc4c[nH]c5c(C(C)(C)O)cccc45)cc3)ccnc21 (single isomer, unassigned) [Compound 24] — 2.1-fold lower, 66.1 nM
- C=C(C)c1cccc2c(CCNc3ccc(Nc4ccnc5c4CCC5OC)cc3)c[nH]c12 (stereo not shown) [Compound 7] — within 1.5-fold, 110 nM
- Cc1cc(Nc2ccnc3c2CCC3O)ccc1NCCc1c[nH]c2c(C(C)(C)O)cccc12 (stereo not shown) [Compound 20] — 2.7-fold lower, 51.3 nM
